From patent publication US20230077362A1 (CORTEVA AGRISCIENCE LLC, priority 2019, published 2023)
Where two headings read alike, the source gives them in different places.

How the values were obtained:
[1] = test system: Cabbage Looper (Trichoplusia ni) ("CL"), second instar larvae; assay: Bioassay on cabbage looper (CL), 128-well diet tray assay; assay type: in vivo; settings: for pest or weed control at 50 µg/cm2: Trichoplusia ni
Outline: (§1)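 Sealed trays, 25° C., 14:10 light:dark, 5–7 d. Per-well % mortality recorded, mean of eight wells reported.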

[2] = test system: Beet Armyworm (Spodoptera exigua) ("BAW"), second instar larvae; assay: Bioassay on beet armyworm (BAW), 128-well diet tray assay; assay type: in vivo; settings: for pest or weed control at 50 µg/cm2: Spodoptera exigua
Outline: as §1

[3] = read-out: CL (Biological Results, rating)
[4] = read-out: BAW (Biological Results, rating)

CC(C)c1ccc(N(C)C)cc1N1C(=O)CS/C1=N\C(=O)Nc1ccc(-c2nnc(-c3ccc(OC(F)(F)F)cc3)s2)cc1F [Compound J506, (Z)-1-(3-(5-(Dimethylamino)-2-isopropylphenyl)-4-oxothiazolidin-2-ylidene)-3-(2-fluoro-4-(5-(4-(trifluoromethoxy)phenyl)-1,3,4-thiadiazol-2-yl)phenyl)urea]
pest or weed control at 50 µg/cm2 ([1]; read-out: CL rating): 50 to 100%
pest or weed control at 50 µg/cm2 ([2]; read-out: BAW rating): 50 to 100%

CCOC(C)c1ccc(C)cc1N1C(=O)CS/C1=N\C(=O)Nc1ccc(-c2ncn(-c3ccc(S(F)(F)(F)(F)F)cc3)n2)cc1C#N (centres unmarked) [Compound J586, (Z)-1-(2-Cyano-4-(1-(4-(pentafluoro-λ^6-sulfaneyl)phenyl)-1H-1,2,4-triazol-3-yl)phenyl)-3-(3-(2-(1-ethoxyethyl)-5-methylphenyl)-4-oxothiazolidin-2-ylidene)urea]
pest or weed control at 50 µg/cm2 ([1]; read-out: CL rating): 50 to 100%
pest or weed control at 50 µg/cm2 ([2]; read-out: BAW rating): 50 to 100%

CC(C)c1ccc(N(C)C)cc1N1C(=O)CS/C1=N\C(=O)Nc1ccc(-c2cn(-c3ccc(OC(F)(F)F)cc3)cn2)cc1F [Compound J474, (Z)-1-(3-(5-(Dimethylamino)-2-isopropylphenyl)-4-oxothiazolidin-2-ylidene)-3-(2-fluoro-4-(1-(4-(trifluoromethoxy)phenyl)-1H-imidazol-4-yl)phenyl)urea]
pest or weed control at 50 µg/cm2 ([1]; read-out: CL rating): 50 to 100%
pest or weed control at 50 µg/cm2 ([2]; read-out: BAW rating): 50 to 100%

Cc1ccc(OCCC(F)(F)F)c(N2C(=O)CS/C2=N\C(=O)Nc2ccc(-c3ncn(-c4ccc(OC(F)(F)F)cn4)n3)cc2C(F)(F)F)c1 [Compound J273, (Z)-1-(3-(5-Methyl-2-(3,3,3-trifluoropropoxy)phenyl)-4-oxothiazolidin-2-ylidene)-3-(4-(1-(5-(trifluoromethoxy)pyridin-2-yl)-1H-1,2,4-triazol-3-yl)-2-(trifluoromethyl)phenyl)urea]
pest or weed control at 50 µg/cm2 [1, 3]: 50 to 100%
pest or weed control at 50 µg/cm2 [2, 4]: 50 to 100%

Cc1ccc(C(C)C)c(N2C(=O)CS/C2=N\C(=O)Nc2ncc(-c3ncn(-c4ccc(C(F)(F)F)cc4)n3)cc2C)c1 [Compound J664, (Z)-1-(3-(2-isopropyl-5-methylphenyl)-4-oxothiazolidin-2-ylidene)-3-(3-methyl-5-(1-(4-(trifluoromethyl)phenyl)-1H-1,2,4-triazol-3-yl)pyridin-2-yl)urea]
pest or weed control at 50 µg/cm2 ([1]; read-out: CL rating): 50 to 100%
pest or weed control at 50 µg/cm2 ([2]; read-out: BAW rating): 50 to 100%

CC(C)c1ccc(N(C)C)cc1N1C(=O)CS/C1=N\C(=O)Nc1ccc(-c2cn(-c3ccc(OC(F)(F)F)cc3)cn2)cc1 [Compound J529, (Z)-1-(3-(5-(Dimethylamino)-2-isopropylphenyl)-4-oxothiazolidin-2-ylidene)-3-(4-(1-(4-(trifluoromethoxy)phenyl)-1H-imidazol-4-yl)phenyl)urea]
pest or weed control at 50 µg/cm2 ([1]; read-out: CL rating): 50 to 100%
pest or weed control at 50 µg/cm2 ([2]; read-out: BAW rating): 50 to 100%

CC(C)c1ccc(N(C)C)cc1N1C(=O)CS/C1=N\C(=O)Nc1ccc(-c2ccn(-c3ccc(C(F)(F)F)cn3)n2)cc1F [Compound J349]
CL (Biological Results, rating) ([1]; Cabbage Looper (Trichoplusia ni), C = Not Tested): A (50-100)
BAW (Biological Results, rating) ([2]; Beet Armyworm (Spodoptera exigua), C = Not Tested): A (50-100)

Cc1ccc(Cc2cccnc2)c(N2C(=O)CS/C2=N\C(=O)Nc2ccc(-c3ncn(-c4ccc(C(F)(F)F)cc4)n3)cc2F)c1 [Compound J758, (Z)-1-(2-Fluoro-4-(1-(4-(trifluoromethyl)phenyl)-1H-1,2,4-triazol-3-yl)phenyl)-3-(3-(5-methyl-2-(pyridin-3-ylmethyl)phenyl)-4-oxothiazolidin-2-ylidene)urea]
pest or weed control at 50 µg/cm2 ([1]; read-out: CL rating): 50 to 100%
pest or weed control at 50 µg/cm2 ([2]; read-out: BAW rating): 50 to 100%

COC(c1ccc(C)cc1N1C(=O)CS/C1=N\C(=O)Nc1ccc(-n2cnc(-c3ccc(OC(F)(F)F)cc3)n2)cc1F)C(F)(F)F (centres unmarked) [Compound J687, (Z)-1-(2-Fluoro-4-(3-(4-(trifluoromethoxy)phenyl)-1H-1,2,4-triazol-1-yl)phenyl)-3-(3-(5-methyl-2-(2,2,2-trifluoro-1-methoxyethyl)phenyl)-4-oxothiazolidin-2-ylidene)urea]
pest or weed control at 50 µg/cm2 ([1]; read-out: CL rating): 50 to 100%
pest or weed control at 50 µg/cm2 ([2]; read-out: BAW rating): 50 to 100%

COc1cc(COCC(F)(F)F)c(N2C(=O)CS/C2=N\C(=O)Nc2ccc(-c3ncn(-c4ccc(S(F)(F)(F)(F)F)cc4)n3)cc2C(F)(F)F)cc1OC [Compound J633, (Z)-1-(3-(4,5-Dimethoxy-2-((2,2,2-trifluoroethoxy)methyl)phenyl)-4-oxothiazolidin-2-ylidene)-3-(4-(1-(4-(pentafluoro-λ^6-sulfaneyl)phenyl)-1H-1,2,4-triazol-3-yl)-2-(trifluoromethyl)phenyl)urea]
pest or weed control at 50 µg/cm2 ([1]; read-out: CL rating): 50 to 100%
pest or weed control at 50 µg/cm2 ([2]; read-out: BAW rating): 50 to 100%

CCCc1ccc(N(C)C)cc1N1C(=O)CS/C1=N\C(=O)Nc1ccc(-c2ncn(-c3ccc(S(=O)(=O)C(F)(F)F)cc3)n2)cc1C [Compound J374, (Z)-1-(3-(5-(Dimethylamino)-2-propylphenyl)-4-oxothiazolidin-2-ylidene)-3-(2-methyl-4-(1-(4-((trifluoromethyl)sulfonyl)phenyl)-1H-1,2,4-triazol-3-yl)phenyl)urea]
pest or weed control at 50 µg/cm2 ([1]; read-out: CL rating): 50 to 100%
pest or weed control at 50 µg/cm2 ([2]; read-out: BAW rating): 50 to 100%

COC(c1ccc(C)cc1N1C(=O)CS/C1=N\C(=O)Nc1ccc(-n2cnc(-c3ccc(OC(F)(F)F)cc3)n2)cc1C)C(F)(F)F (centres unmarked) [Compound J443, (Z)-1-(3-(5-Methyl-2-(2,2,2-trifluoro-1-methoxyethyl)phenyl)-4-oxothiazolidin-2-ylidene)-3-(2-methyl-4-(3-(4-(trifluoromethoxy)phenyl)-1H-1,2,4-triazol-1-yl)phenyl)urea]
pest or weed control at 50 µg/cm2 ([1]; read-out: CL rating): 50 to 100%
pest or weed control at 50 µg/cm2 ([2]; read-out: BAW rating): 50 to 100%

Cc1ccc(COCC(F)(F)F)c(N2C(=O)CS/C2=N\C(=O)Nc2ccc(-c3ncn(-c4ccc(C(F)(F)F)cn4)n3)cc2F)c1 [Compound J281, (Z)-1-(2-Fluoro-4-(1-(5-(trifluoromethyl)pyridin-2-yl)-1H-1,2,4-triazol-3-yl)phenyl)-3-(3-(5-methyl-2-((2,2,2-trifluoroethoxy)methyl)phenyl)-4-oxothiazolidin-2-ylidene)urea]
pest or weed control at 50 µg/cm2 [1, 3]: 50 to 100%
pest or weed control at 50 µg/cm2 [2, 4]: 50 to 100%

Cc1ccc(OCCC(F)(F)F)c(N2C(=O)CS/C2=N\C(=O)Nc2ccc(-c3ncn(-c4ccc(S(=O)(=O)C(F)(F)F)cc4)n3)cc2F)c1 [Compound J369, (Z)-1-(2-Fluoro-4-(1-(4-((trifluoromethyl)sulfonyl)phenyl)-1H-1,2,4-triazol-3-yl)phenyl)-3-(3-(5-methyl-2-(3,3,3-trifluoropropoxy)phenyl)-4-oxothiazolidin-2-ylidene)urea]
pest or weed control at 50 µg/cm2 ([1]; read-out: CL rating): 50 to 100%
pest or weed control at 50 µg/cm2 ([2]; read-out: BAW rating): 50 to 100%

Cc1ccc(COCC(F)F)c(N2C(=O)CS/C2=N\C(=O)Nc2ccc(-c3ncn(-c4ccc(OC(F)(F)F)cc4)n3)cc2F)c1 [Compound J401]
pest or weed control at 50 µg/cm2 ([1]; read-out: CL rating): 50 to 100%
pest or weed control at 50 µg/cm2 ([2]; read-out: BAW rating): 50 to 100%

CC(C)c1cc(F)c(N(C)C)cc1N1C(=O)CS/C1=N\C(=O)Nc1ccc(-c2ncn(-c3ccc(OC(F)(F)F)cc3)n2)cc1F [Compound J162, (Z)-1-(3-(5-(Dimethylamino)-4-fluoro-2-isopropylphenyl)-4-oxothiazolidin-2-ylidene)-3-(2-fluoro-4-(1-(4-(trifluoromethoxy)phenyl)-1H-1,2,4-triazol-3-yl)phenyl)urea]
pest or weed control at 50 µg/cm2 [1, 3]: 50 to 100%
pest or weed control at 50 µg/cm2 [2, 4]: 50 to 100%

CC(C)c1cc(-c2ncn(-c3ccc(OC(F)(F)F)cc3)n2)ccc1NC(=O)/N=C1\SCC(=O)N1c1cc(N(C)C)ccc1C(C)C [Compound J101, (Z)-1-(3-(5-(Dimethylamino)-2-isopropylphenyl)-4-oxothiazolidin-2-ylidene)-3-(2-isopropyl-4-(1-(4-(trifluoromethoxy)phenyl)-1H-1,2,4-triazol-3-yl)phenyl)urea]
pest or weed control at 50 µg/cm2 [1, 3]: 50 to 100%
pest or weed control at 50 µg/cm2 [2, 4]: 50 to 100%

COC(C)c1ccc(C)cc1N1C(=O)CS/C1=N\C(=O)Nc1ccc(-c2ncn(-c3ccc(C(F)(F)F)cn3)n2)cc1Cl (centres unmarked) [Compound J306, (Z)-1-(2-Chloro-4-(1-(5-(trifluoromethyl)pyridin-2-yl)-1H-1,2,4-triazol-3-yl)phenyl)-3-(3-(2-(1-methoxyethyl)-5-methylphenyl)-4-oxothiazolidin-2-ylidene)urea]
pest or weed control at 50 µg/cm2 [1, 3]: 50 to 100%
pest or weed control at 50 µg/cm2 [2, 4]: 50 to 100%

Cc1ccc(COCC(Cl)Cl)c(N2C(=O)CS/C2=N\C(=O)Nc2ccc(-c3ncn(-c4ccc(OC(F)(F)F)cc4)n3)cc2C)c1 [Compound J555]
pest or weed control at 50 µg/cm2 ([1]; read-out: CL rating): 50 to 100%
pest or weed control at 50 µg/cm2 ([2]; read-out: BAW rating): 50 to 100%

CCOCc1ccc(C)cc1N1C(=O)CS/C1=N\C(=O)Nc1ccc(-c2ncn(-c3ccc(OCC(F)(F)F)cc3)n2)cc1F [Compound J766, (Z)-1-(3-(2-(Ethoxymethyl)-5-methylphenyl)-4-oxothiazolidin-2-ylidene)-3-(2-fluoro-4-(1-(4-(2,2,2-trifluoroethoxy)phenyl)-1H-1,2,4-triazol-3-yl)phenyl)urea]
pest or weed control at 50 µg/cm2 ([1]; read-out: CL rating): 50 to 100%
pest or weed control at 50 µg/cm2 ([2]; read-out: BAW rating): 50 to 100%

COC(C)c1ccc(C)cc1N1C(=O)CS/C1=N\C(=O)Nc1ccc(-c2ncn(-c3ccc(C(F)(F)F)cn3)n2)cc1C(F)(F)F (centres unmarked) [Compound J303, (Z)-1-(3-(2-(1-Methoxyethyl)-5-methylphenyl)-4-oxothiazolidin-2-ylidene)-3-(2-(trifluoromethyl)-4-(1-(5-(trifluoromethyl)pyridin-2-yl)-1H-1,2,4-triazol-3-yl)phenyl)urea]
pest or weed control at 50 µg/cm2 [1, 3]: 50 to 100%
pest or weed control at 50 µg/cm2 [2, 4]: 50 to 100%

CCOCc1ccc(C)cc1N1C(=O)CS/C1=N\C(=O)Nc1ccc(-c2ncn(-c3ccc(S(F)(F)(F)(F)F)cc3)n2)cc1C [Compound J548]
CL rating ([1]; Table ABC, species CL, C = not tested, D = no activity noticed): A (50-100)
BAW rating ([2]; Table ABC, species BAW, C = not tested, D = no activity noticed): A (50-100)
